What was measured:
[1] = tested on: eyes of rabbits; test: Safety of topically applied PS in rabbits (toxicity, intraocular pressure, corneal melt, slit lamp); assay type: in vivo, rabbit
From the text: The Safety of Topically Applied PS.

[2] = Ocular biodistribution of PS after topical eye drops in New Zealand white rabbits (HPLC); assay type: in vivo, rabbit
Procedure: Results: The above PS formulation was administered topically as eye drops to the eyes of New Zealand white rabbits. The levels of PS in ocular tissues 1 h and 3 h later were determined by HPLC. The Table below summarizes the findings:
Results: The above PS formulation was administered topically as eye drops to the eyes of New Zealand white rabbits. The levels of PS in ocular tissues at 2 h later were determined by HPLC. The table below summarizes the findings.
Results: PS in this formulation was administered topically to the eyes of New Zealand white rabbits and its biodistribution was determined as above. The Table below summarizes the findings.
Results: PS in this formulation was administered topically as eye drops to the eyes of New Zealand white rabbits. The biodistribution of PS in ocular tissues at 3 h and 6 h was determined by HPLC. The Table below summarizes the findings.
Biodistribution of PS after topical administration: PS formulated in nanoparticles as above was administered topically as eye drops to New Zealand white rabbits. The biodistribution of PS in ocular tissues at the indicated time points post administration was determined by HPLC. The Table below summarizes the findings.
Biodistribution of PS after topical administration: PS in the formulations was administered topically as eye drops to the eyes of New Zealand white rabbits. The levels of PS in ocular tissues at 0.5 h, 1 h and 3 h were determined by HPLC. The Table below summarizes the findings.
To assess the contribution of the foregoing formulations to the PK/biodistribution of PS in the ocular tissues, a solution of PS in pure propylene glycol (PG) was studied. PG is well tolerated by the eye. A 3.5% PS solution (in PG) as eye drops was administered topically to the eyes of New Zealand white rabbits and its 1-hour biodistribution was determined by HPLC. The Table summarizes the findings.

[3] = rabbits, 2 weeks of daily PS 3.6% eye drops
[4] = weekly during a 1-month application of PS
[5] = 0.5 h, topical, 0.4% gellan gum in-situ gel, 2.4-3% PS
[6] = 1 h, topical eye drops, 3.5% PS/16% Vitamin E TPGS/mannitol/boric acid
[7] = 1 h, topical, 0.4% gellan gum in-situ gel, 2.4-3% PS
[8] = 1 h, topical, sodium alginate/Tween 80 in-situ gel, 3% PS
[9] = 2 h, topical, 0.5% gellan gum in-situ gel, 2.4~3% PS
[10] = 3 h, topical eye drops, 3.5% PS/16% Vitamin E TPGS/mannitol/boric acid
[11] = 3 h, topical, 0.4% gellan gum in-situ gel, 2.4-3% PS
[12] = 3 h, topical, Poloxamer 407 in-situ gel, 5.4% PS
[13] = 3 h, topical, sodium alginate/Tween 80 in-situ gel, 3% PS
[14] = 5 h, topical, 0.4% gellan gum in-situ gel, 2.4-3% PS
[15] = 5 h, topical, sodium alginate/Tween 80 in-situ gel, 3% PS
[16] = 8 h, topical, 0.4% gellan gum in-situ gel, 2.4-3% PS

SMILES: CCOP(=O)(OCC)OCCCCOC(=O)CC1=C(C)/C(=C/c2ccc([S+](C)[O-])cc2)c2ccc(F)cc21 (centres unmarked) [PS, phosphosulindac]
- Intraocular pressure (Tonopen) ([1]; 1-month application of PS): remained normal
- signs of uveitis ([1]; 1-month application of PS): No animal developed signs of uveitis
- tolerability of ocular application ([1]; rabbits): very well tolerated
- keratitis or corneal melting (ophthalmological examination) ([1]; rabbits treated for up to 3 weeks): no evidence of keratitis or corneal melting
- intraocular pressure [1, 3]: no changes in intraocular pressure
- topical or systemic toxicity [1, 3]: no evidence of topical or systemic toxicity
- slit lamp examination: conjunctiva [1, 4]: no evidence of follicular/papillary response or injection of the conjunctiva
- slit lamp examination: corneal abnormalities (staining defects, vascularization, opacification, epithelial defects, stromal thinning, melts) [1, 4]: nor were there signs of corneal abnormalities
- PS in Aqueous humor [2, 5]: 0.6 µM
- PS in Conjunctiva [2, 5]: 37.7 µM
- PS in Cornea [2, 5]: 24.3 µM
- PS in Aqueous humor [2, 6]: 2.3 µM
- PS in Choroid [2, 6]: 3.2 µM
- PS in Conjunctiva [2, 6]: 9.3 µM
- PS in Cornea [2, 6]: 6.9 µM
- PS in Iris [2, 6]: 0.7 µM
- PS in Lacrimal gland [2, 6]: 0.1 µM
- PS in Lens [2, 6]: 1.8 µM
- PS in Retina [2, 6]: 2.7 µM
- PS in Sclera [2, 6]: 2.3 µM
- PS in Vitreous body [2, 6]: 3.6 µM
- PS in Aqueous humor [2, 7]: 0.4 µM
- PS in Conjunctiva [2, 7]: 20.8 µM
- PS in Cornea [2, 7]: 50.8 µM
- PS in Aqueous humor [2, 8]: 0.4 µM
- PS in Conjunctiva [2, 8]: 4.9 µM
- PS in Cornea [2, 8]: 17.8 µM
- PS in Aqueous humor [2, 9]: 1.2 µM
- PS in Conjunctiva [2, 9]: 24.1 µM
- PS in Cornea [2, 9]: 72.0 µM
- PS in Aqueous humor [2, 10]: 0.1 µM
- PS in Choroid [2, 10]: 0.2 µM
- PS in Conjunctiva [2, 10]: 0.5 µM
- PS in Cornea [2, 10]: 0.8 µM
- PS in Iris [2, 10]: 0.9 µM
- PS in Lacrimal gland [2, 10]: 0.5 µM
- PS in Lens [2, 10]: 0.1 µM
- PS in Retina [2, 10]: 0.2 µM
- PS in Sclera [2, 10]: 0.2 µM
- PS in Conjunctiva [2, 11]: 0.7 µM
- PS in Cornea [2, 11]: 1.5 µM
- PS in Choroid [2, 12]: 0.9 µM
- PS in Cornea [2, 12]: 45.1 µM
- PS in Aqueous humor [2, 13]: 0.3 µM
- PS in Conjunctiva [2, 13]: 2.1 µM
- PS in Cornea [2, 13]: 5.0 µM
- PS in Conjunctiva [2, 14]: 1.1 µM
- PS in Cornea [2, 14]: 1.1 µM
- PS in Conjunctiva [2, 15]: 2.3 µM
- PS in Cornea [2, 15]: 1.0 µM
- PS in Conjunctiva [2, 16]: 0.7 µM
- PS in Cornea [2, 16]: 1.6 µM
- PS in Conjunctiva ([2]; 8 h, topical, sodium alginate/Tween 80 in-situ gel, 3% PS): 1.3 µM
- concentration at 5 h ([2]; New Zealand white, rabbit, aqueous humor, topical, 3 % PS, 5 h, topical, sodium alginate/Tween 80 in-situ gel, 3% PS, read-out: PS in Aqueous humor): 0 nM
- concentration at 8 h ([2]; New Zealand white, rabbit, aqueous humor, topical, 3 % PS, 8 h, topical, sodium alginate/Tween 80 in-situ gel, 3% PS, read-out: PS in Aqueous humor): 0 nM
- concentration at 1 h ([2]; New Zealand white, rabbit, aqueous humor, topical, 3.5 % PS solution (eye drops), 1 h, topical eye drops, 3.5% PS solution in propylene glycol, read-out: PS in Aqueous humor): 700 nM

Source: patent US11510931B2, “Compositions and methods for treating ophthalmic conditions” (MEDICON PHARMACEUTICALS, INC., priority 2016, dated 2022)
